ChEMBL document CHEMBL1158136, “Ashwagandhanolide, a bioactive dimeric thiowithanolide isolated from the roots of Withania somnifera” (2006)

Columns and labels:
[1] = target: Prostaglandin G/H synthase 1 (Homo sapiens) (UniProt P23219); assay: Inhibition of COX1 at 100 ug/mL
AGS = assay: Cytotoxicity against human AGS cells by MTT assay; type: functional
SF-268 = assay: Cytotoxicity against human SF-268 cells by MTT assay; type: functional
NCI-H460 = assay: Cytotoxicity against human NCI-H460 cells by MTT assay; type: functional
[2] = Cytotoxicity against human HCT 116 cells by MTT assay; type: functional
[3] = target: T1, Prostaglandin G/H synthase 2 (Homo sapiens) (UniProt P35354); assay: Inhibition of COX2 at 100 ug/mL
T1 sequence (whole entry): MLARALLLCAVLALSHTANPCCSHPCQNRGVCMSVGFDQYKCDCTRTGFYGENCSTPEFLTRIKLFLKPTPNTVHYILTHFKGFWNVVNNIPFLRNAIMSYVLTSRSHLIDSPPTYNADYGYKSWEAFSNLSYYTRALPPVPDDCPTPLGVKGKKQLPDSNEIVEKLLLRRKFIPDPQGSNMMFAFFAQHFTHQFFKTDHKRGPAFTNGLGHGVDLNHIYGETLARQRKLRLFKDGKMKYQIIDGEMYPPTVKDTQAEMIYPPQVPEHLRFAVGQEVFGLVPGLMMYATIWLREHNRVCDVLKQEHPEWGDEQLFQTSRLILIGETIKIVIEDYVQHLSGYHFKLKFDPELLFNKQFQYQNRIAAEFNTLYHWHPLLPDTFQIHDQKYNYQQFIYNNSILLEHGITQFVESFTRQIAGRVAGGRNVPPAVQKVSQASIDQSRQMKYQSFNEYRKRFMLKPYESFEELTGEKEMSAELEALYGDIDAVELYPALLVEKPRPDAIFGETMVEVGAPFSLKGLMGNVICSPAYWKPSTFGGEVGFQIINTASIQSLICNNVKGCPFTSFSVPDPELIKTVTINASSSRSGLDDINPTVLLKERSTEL

MCF7 = assay: Cytotoxicity against human MCF7 cells by MTT assay; type: functional

Sequence of Prostaglandin G/H synthase 1 (Homo sapiens) (P23219 whole entry): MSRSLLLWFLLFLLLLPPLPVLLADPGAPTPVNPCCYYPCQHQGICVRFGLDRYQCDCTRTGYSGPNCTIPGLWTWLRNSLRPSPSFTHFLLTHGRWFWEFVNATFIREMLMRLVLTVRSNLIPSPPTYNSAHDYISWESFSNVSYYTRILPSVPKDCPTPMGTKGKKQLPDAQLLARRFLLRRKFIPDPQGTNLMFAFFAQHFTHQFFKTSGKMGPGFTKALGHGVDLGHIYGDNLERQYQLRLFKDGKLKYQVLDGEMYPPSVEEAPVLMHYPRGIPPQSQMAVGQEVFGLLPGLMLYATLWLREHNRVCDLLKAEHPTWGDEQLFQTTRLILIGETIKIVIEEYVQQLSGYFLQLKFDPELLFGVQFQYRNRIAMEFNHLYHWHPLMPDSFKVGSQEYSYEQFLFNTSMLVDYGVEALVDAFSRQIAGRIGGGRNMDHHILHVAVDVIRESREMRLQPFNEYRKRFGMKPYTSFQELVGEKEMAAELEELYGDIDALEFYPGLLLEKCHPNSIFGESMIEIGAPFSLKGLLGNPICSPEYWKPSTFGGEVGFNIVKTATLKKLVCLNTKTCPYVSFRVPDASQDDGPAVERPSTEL

Q: Which inhibition [1] does the source give for `CC1=C(CO)C(=O)O[C@@H]([C@@H](C)[C@H]2CC[C@H]3[C@@H]4C[C@H](S[C@H]5C[C@H]6[C@@H]7CC[C@H]([C@H](C)[C@H]8CC(C)=C(CO)C(=O)O8)[C@@]7(C)CC[C@@H]6[C@@]6(C)C(=O)C=C[C@H](O)[C@@]56O)[C@]5(O)[C@@H](O)C=CC(=O)[C@]5(C)[C@H]4CC[C@]23C)C1` [ASHWAGANDHANOLIDE] here?
A: 65%

Q: What about the IG50 (AGS) of the same compound?
A: 0.43 µg/mL

Q: What about the IG50 (SF-268) of the same compound?
A: 0.84 µg/mL

Q: What about the IG50 (NCI-H460) of the same compound?
A: 1.48 µg/mL

Q: What about the IG50 [2] of the same compound?
A: 1.25 µg/mL

Q: And the inhibition [3]?
A: 60%

Q: What about the IG50 (MCF7) of the same compound?
A: 1.45 µg/mL
